Laboratory results published in US20250163016A1, “PYRIDINE DERIVATIVE, PREPARATION METHOD THEREFOR AND USE THEREOF” (CHENGDU EASTON BIOPHARMACEUTICALS CO., LTD., priority 2022, published 2025).

Key:
[1] = tested on: NCI-H1417 cells; assay: NCI-H1417 cell proliferation inhibition test (Celltiter GLO); type: cell-based; conditions: Homo sapiens, 168 h, NCI-H1417, 7 days culture
Description: (§1) Research had confirmed that LSD1 played a crucial role in the occurrence process of various types of cancers, including small cell lung cancer (SCLC) and acute myeloid leukemia (AML). Therefore, a human small cell lung cancer (NCI-H1417) cell line was used to determine the ATP content in cells at different drug concentrations using a Celltiter GLO assay kit, and the cell activity was reflected by luminescence intensity. IC50 values of different compounds on the NCI-H1417 cells were calculated using inhibition rates. The inhibitory effects of the compounds in the present application on the proliferation of the NCI-H1417 cells were studied to evaluate the anti-tumor efficacy of the tested compounds at the cellular level.
(§2) • Day 1 Cells were seeded into the 384-well cell culture plate and placed in a 37° C. 5% CO2 cell incubator to be cultured overnight. • Day 0 The compound to be tested was prepared into a 10 mM mother liquid using DMSO, starting from 1 μM, diluted by 3 folds, with 10 concentration points and double duplicate wells. A diluted compound was added into the 384-well cell culture plate and placed in a 37° C. 5% CO2 cell incubator to be cultured for 7 days. The concentration of the DMSO in a cell culture system was 0.1%. • Day 7 Celltiter GLO was added into the 384-well cell culture plate according to a volume ratio of culture system:Celltiter GLO=1:1, light-shielded oscillation was carried out on a plate oscillator for 3 min, then the cell culture plate was placed at the room temperature for 30 min with light shielded, and the plate was read using a multifunctional microplate reader chemical light emitting module.
An inhibition percentage was calculated by utilizing luminescence intensity of the above DMSO group (with DMSO added), test group (with the tested compound and a positive control solution added) and blank group (not treating cells), a calculation formula being
(§3) Using a logarithm of the concentration as an X axis and the percentage inhibition rate as a Y axis, a dose-response curve was fitted using a formula log(inhibitor) vs. response-Variable slope (Four parameters) of analysis software Graphpad Prism 8 to obtain the IC50 value of each compound on NCI-H1417 proliferation inhibition activity.

[2] = Pharmacokinetics of oral administration of rats; type: in vivo; conditions: male, rat, SD rats, p.o. 5.0 mg/kg, plasma
Description: With SD rats as tested animals, blood drug concentrations in plasma at different moments after oral administration of the compounds of the present application by the rats in a clarification kit mode were determined using an LC-MS/MS method. Pharmacokinetic parameters of the compounds of the present application in the rats were obtained, and pharmacokinetic characteristics of the compounds were studied.
• SD rats, male, weight 180-220 g, 3 rats per group. The animals were fed in an animal house after being purchased, an adaptation period was at least 3 days, and they were used for tests after passing quarantine.
According to Table 4, each group of rats was given the corresponding tested drugs or positive drugs by gavage, before administration, and 15 min, 30 min, 1 h, 2 h, 4 h, 6 h, 8 h, and 24 h after administration, a fixed volume of blood was collected through eye sockets and placed in an EDTA-K2 anticoagulant tube, centrifuging was carried out at 8000 rpm for 1 min to separate plasma into a centrifuge tube, and the plasma was frozen in a −20° C. refrigerator.
The plasma at each time point stored at −20° C. was taken out, then acetonitrile was added, after whirling at 1500 revolutions for 2 min, centrifuging was carried out for 15 min (3500 r/min), and a fixed volume of solution supernatant was taken for LC-MS/MS analysis.
Non-compartment model fitting was carried out on pharmacokinetic behaviors of the tested compounds, and DAS3.31 software was adopted to calculate main pharmacokinetic parameters (T1/2, Tmax, Cmax, AUClast, etc.).

[3] = tested on: Kasumi-1 cells; assay: Kasumi-1 cell proliferation inhibition test (Celltiter GLO); type: cell-based; conditions: Homo sapiens, 168 h, Kasumi-1, 7 days culture
Description: as §1, with “acute myeloid leukemia (Kasumi-1)” for “small cell lung cancer (NCI-H1417)”, “kit,” for “kit, and”, “intensity, and” for “intensity.”, “Kasumi-1” for “the NCI-H1417”
as §2, with “[…],” for “μM,”, “0.1 vol %.” for “0.1%.”
An inhibition rate was calculated by utilizing luminescence intensity of the above DMSO group (with DMSO added), test group (with the tested compound or a positive control solution added) and blank group (not treating cells), and a calculation formula was as follows: […]
as §3, with “Kasumi-1” for “NCI-H1417”

[4] = target: T1, LSD1 (Homo sapiens, UniProt O60341); assay: LSD1 activity test (HTRF); type: biochemical; conditions: H3(1-21)K4 me1-biotin substrate, read-out: IC50, inhibitory activity on LSD1
T1 construct: purchased Active Motif 31432
Description: In this test, a homogeneous time resolved fluorescence (HTRF) technology was utilized, and the inhibitory activity of compounds on LSD1 was detected by adopting a two-step method. The first step was to incubate LSD1, compounds of different concentrations, and a biotin-labeled methylated polypeptide substrate (H3(1-21)K4 me1-biotin) at the room temperature for fixed time.
A corresponding solution with a 1000-fold final concentration was formed by dilution in a 384-well Source plate, and then Echo550 was used for transferring 10 nL to a 384-well reaction plate for being tested.
An inhibition percentage was calculated using a maximum value, a minimum value, and a signal value (maximum value: fluorescence intensity of 5 μL of 2× enzyme solution+5 μL of 2× substrate mixed solution+10 nL of 100% DMSO+10 μL of detection solution; minimum value: fluorescence intensity of 5 μL of 1× reaction solution+5 μL of 2× substrate mixed solution+10 nL of 100% DMSO+10 μL of detection solution; and signal value: fluorescence intensity of 5 μL of 2× enzyme solution+5 μL of 2× substrate mixed solution+10 nL of diluted compound to be tested+10 μL of detection solution), and a calculation formula was as follows: […]
as §3, with “5” for “8”, “the enzyme” for “NCI-H1417 proliferation inhibition”

| IC50 [1] [nM] | AUC(0-t) [2] [ng·h/mL] | Cmax [2] [ng/mL] | Tmax [2] [h] | half-life [2] [h] | IC50 [4] [nM] | SMILES | IC50 [3] [nM] |
| --- | --- | --- | --- | --- | --- | --- | --- |
| 16.7 | 712 ± 89.3 | 55 ± 7.72 | 6 | 5.31 ± 0.24 | 0.47 | Cn1ncc2cc(-c3c(C#N)cc(N4CCC(N)CC4)nc3-c3ccc(C#N)c(F)c3)ccc21 [Compound 4, 6-(4-aminopiperid-1-yl)-2-(4-cyano-3-fluorophenyl)-3-(1-methyl-1H-indazol-5-yl)isonicotinonitrile] | 3.07 |
| 33.3 | 591 ± 292 | 77.2 ± 32.1 | 4 | 2.94 ± 0.11 | 1.5 | CN1C(=O)Cc2cc(-c3c(C#N)cc(N4CCC(N)CC4)nc3-c3ccc(C#N)c(F)c3)ccc21 [Compound 18, 6-(4-aminopiperid-1-yl)-2-(4-cyano-3-fluorophenyl)-3-(1-methyl-2-oxoindol-5-yl)isonicotinonitrile] | 8.79 |
| 6.51 | 721 ± 125 | 81.4 ± 17 | 4.67 ± 1.15 | 2.84 ± 0.59 | 0.79 | CC(C)(O)Cn1ncc2cc(-c3c(C#N)cc(N4CCCNCC4)nc3-c3ccc(C#N)c(F)c3)c(F)cc21 [Compound 21, 2-(4-cyano-3-fluorophenyl)-6-(1,4-diazaniline-1-yl)-3-(6-fluoro-1-(2-hydroxyl-2-methylpropyl)-1H-indazol-5-yl)isonicotinonitrile] | 1.03 |
